Key:
[1] = test system: ATXN3 pre-mRNA; experiment: RT-qPCR Assay to Quantify Exon 4 Skipping in ATXN3 pre-mRNA in Cells; format: cell-based; settings: percent exon 4 skipping in ATXN3 pre-mRNA, RT-qPCR of cell lysates; average IC50
Summary of the method: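 IC50 derives from a dose-response fit of percent exon 4 skipping, quantified by RT-qPCR on crude lysates. Compounds tested as 7-point 3.16-fold dilutions in duplicate; cells (10,000/well) were exposed for 24 h at 37 °C before lysis.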

[2] = test system: Total ATXN3 (tATXN3) protein; experiment: Endogenous Total ATXN3 (tATXN3) Protein Assay (MSD immunoassay of cell lysates); format: cell-based; settings: average IC50, total ATXN3 protein in cell lysate after 48 h with compound (Table 1)
Summary of the method: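 By electrochemiluminescent MSD sandwich immunoassay (mouse monoclonal capture, rabbit monoclonal and SULFO-TAG anti-rabbit detection), endogenous ATXN3 was quantified in lysates of cells treated 48 h at 37° C at 10,000 cells/well. Treatment used a 7-point 3.16-fold duplicate dilution series, with average IC50 grouped into star categories.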

| SMILES | IC50 [1] [nM] | IC50 [2] [nM] |
| --- | --- | --- |
| N[C@@H]1CC=CC[C@H]1c1sc2c(NCc3ccco3)cc(Cl)nc2c1I [Compound 327, 2-((1R,6R)-6-aminocyclohex-3-en-1-yl)-5-chloro-N-(furan-2-ylmethyl)-3-iodothieno[3,2-b]pyridin-7-amine] | 30 to 300 | 30 to 300 |
| CC#Cc1c([C@H]2CCCC[C@@H]2N)n(C(F)F)c2c(NCc3ccco3)nc(Cl)nc12 [Compound 331, 6-((1S,2S)-2-aminocyclohexyl)-2-chloro-5-(difluoromethyl)-N-(furan-2-ylmethyl)-7-(prop-1-yn-1-yl)-5H-pyrrolo[3,2-d]pyrimidin-4-amine] | 30 to 300 | 30 to 300 |
| CN(Cc1ccco1)c1cc(Cl)nc2c(C#CCCCO)c([C@H]3CC=CC[C@@H]3N)sc12 [Compound 336, 5-(2-((1S,6S)-6-aminocyclohex-3-en-1-yl)-5-chloro-7-((furan-2-ylmethyl)(methyl)amino)thieno[3,2-b]pyridin-3-yl)pent-4-yn-1-ol] | 30 to 300 | 30 to 300 |
| N[C@H]1COCC[C@@H]1c1sc2c(NCc3nccs3)cc(Cl)nc2c1Cl [Compound 337, 2-((3R,4S)-3-aminotetrahydro-2H-pyran-4-yl)-3,5-dichloro-N-(thiazol-2-ylmethyl)thieno[3,2-b]pyridin-7-amine] | 30 to 300 | 30 to 300 |
| Cc1c([C@@H]2[C@@H](N)CCCC2(F)F)sc2c(NCc3cccs3)cc(Cl)nc12 [Compound 338, 2-((1R,6S)-6-amino-2,2-difluorocyclohexyl)-5-chloro-3-methyl-N-(thiophen-2-ylmethyl)thieno[3,2-b]pyridin-7-amine] | 30 to 300 | 30 to 300 |
| N[C@H]1CC=CC[C@@H]1c1sc2c(NCc3nccs3)nc(Cl)nc2c1Cl [Compound 340, 6-((1S,6S)-6-aminocyclohex-3-en-1-yl)-2,7-dichloro-N-(thiazol-2-ylmethyl)thieno[3,2-d]pyrimidin-4-amine] | 30 to 300 | 30 to 300 |
| Cc1c([C@H]2CC=CC[C@@H]2N)sc2c(NCc3ccccc3F)cc(Cl)nc12 [Compound 341, 2-((1S,6S)-6-aminocyclohex-3-en-1-yl)-5-chloro-N-(2-fluorobenzyl)-3-methylthieno[3,2-b]pyridin-7-amine] | 30 to 300 | 30 to 300 |
| CC#CCNc1cc(Cl)nc2c(Br)c([C@H]3OCCC[C@@H]3N)sc12 [Compound 343, 2-((2S,3S)-3-aminotetrahydro-2H-pyran-2-yl)-3-bromo-N-(but-2-yn-1-yl)-5-chlorothieno[3,2-b]pyridin-7-amine] | 30 to 300 | 30 to 300 |
| C#Cc1c([C@@H]2CCCC[C@H]2N)sc2c(NCc3ccccc3)cc(Cl)nc12 [Compound 344, 2-((1R,2R)-2-aminocyclohexyl)-N-benzyl-5-chloro-3-ethynylthieno[3,2-b]pyridin-7-amine] | 30 to 300 | 30 to 300 |
| N[C@@H]1CC=CC[C@H]1c1sc2c(NCc3ccccc3)cc(Cl)nc2c1I [Compound 345, 2-((1R,6R)-6-aminocyclohex-3-en-1-yl)-N-benzyl-5-chloro-3-iodothieno[3,2-b]pyridin-7-amine] | 30 to 300 | 30 to 300 |
| CN(Cc1cccs1)c1cc(Cl)nc2c(C#CCCCO)c([C@H]3CC=CC[C@@H]3N)sc12 [Compound 349, 5-(2-((1S,6S)-6-aminocyclohex-3-en-1-yl)-5-chloro-7-(methyl(thiophen-2-ylmethyl)amino)thieno[3,2-b]pyridin-3-yl)pent-4-yn-1-ol] | 30 to 300 | 30 to 300 |
| Cn1c([C@H]2CCOC[C@@H]2N)c(Br)c2nc(Cl)cc(NCc3cccs3)c21 [Compound 351, 2-((3R,4S)-3-aminotetrahydro-2H-pyran-4-yl)-3-bromo-5-chloro-1-methyl-N-(thiophen-2-ylmethyl)-1H-pyrrolo[3,2-b]pyridin-7-amine] | 30 to 300 | 30 to 300 |
| N[C@H]1CC=CC[C@@H]1c1c(I)c2nc(Cl)cc(NCc3ccccc3)c2n1C(F)F [Compound 352, 2-((1S,6S)-6-aminocyclohex-3-en-1-yl)-N-benzyl-5-chloro-1-(difluoromethyl)-3-iodo-1H-pyrrolo[3,2-b]pyridin-7-amine] | 30 to 300 | 30 to 300 |
| Cc1c([C@H]2CC=C(C(=O)Nc3ccccc3)C[C@@H]2N)sc2c(NCc3cccs3)cc(Cl)nc12 [Compound 353, (4S,5S)-5-amino-4-(5-chloro-3-methyl-7-((thiophen-2-ylmethyl)amino)thieno[3,2-b]pyridin-2-yl)-N-phenylcyclohex-1-ene-1-carboxamide] | 30 to 300 | 30 to 300 |
| N[C@H]1CCCC[C@@H]1c1sc2c(NCC3=CCCC3)cc(Cl)nc2c1Br [Compound 361, 2-((1S,2S)-2-aminocyclohexyl)-3-bromo-5-chloro-N-(cyclopent-1-en-1-ylmethyl)thieno[3,2-b]pyridin-7-amine] | 30 to 300 | 30 to 300 |
| N[C@@H]1CC=CC[C@H]1c1sc2c(NCc3cccs3)nc(Cl)nc2c1I [Compound 362, 6-((1R,6R)-6-aminocyclohex-3-en-1-yl)-2-chloro-7-iodo-N-(thiophen-2-ylmethyl)thieno[3,2-d]pyrimidin-4-amine] | 30 to 300 | 30 to 300 |
| N[C@H]1COCC[C@@H]1c1sc2c(NCc3ccncc3)cc(Cl)nc2c1Br [Compound 364, 2-((3R,4S)-3-aminotetrahydro-2H-pyran-4-yl)-3-bromo-5-chloro-N-(pyridin-4-ylmethyl)thieno[3,2-b]pyridin-7-amine] | 30 to 300 | 30 to 300 |
| [2H]C1=C([2H])C([2H])([2H])[C@@H](c2sc3c(NCc4ccco4)cc(Cl)nc3c2Cl)[C@H](N)C1([2H])[2H] [Compound 369, 2-((1R,6R)-6-aminocyclohex-3-en-1-yl-2,2,3,4,5,5-d6)-3,5-dichloro-N-(furan-2-ylmethyl)thieno[3,2-b]pyridin-7-amine] | 30 to 300 | 30 to 300 |
| N[C@H]1CC=C[C@@H](O)[C@@H]1c1sc2c(NCc3cccs3)cc(Cl)nc2c1Cl [Compound 377, (1R,5S,6R)-5-amino-6-(3,5-dichloro-7-((thiophen-2-ylmethyl)amino)thieno[3,2-b]pyridin-2-yl)cyclohex-2-en-1-ol] | 30 to 300 | 30 to 300 |
| C/C=C/CNc1cc(Cl)nc2c(C)c([C@H]3CC=CC[C@@H]3N)sc12 [Compound 378, 2-((1S,6S)-6-aminocyclohex-3-en-1-yl)-N-((E)-but-2-en-1-yl)-5-chloro-3-methylthieno[3,2-b]pyridin-7-amine] | 30 to 300 | 30 to 300 |
| N[C@@H]1CC=CC[C@H]1c1c(I)c2nc(Cl)nc(NCc3ccco3)c2n1C(F)F [Compound 379, 6-((1R,6R)-6-aminocyclohex-3-en-1-yl)-2-chloro-5-(difluoromethyl)-N-(furan-2-ylmethyl)-7-iodo-5H-pyrrolo[3,2-d]pyrimidin-4-amine] | 30 to 300 | 30 to 300 |

Results, then the compound that gave them:

| IC50 [1] [nM] | IC50 [2] [nM] | SMILES |
| --- | --- | --- |
| 30 to 300 | 30 to 300 | Cc1c([C@H]2CC=CC[C@@H]2N)sc2c(NCc3ccccc3)nc(Cl)nc12 [Compound 326, 6-((1S,6S)-6-aminocyclohex-3-en-1-yl)-N-benzyl-2-chloro-7-methylthieno[3,2-d]pyrimidin-4-amine] |
| 30 to 300 | 30 to 300 | N[C@H]1CC=CC[C@@H]1c1c(I)c2nc(Cl)nc(NCc3ccccc3)c2n1C(F)F [Compound 348, 6-((1S,6S)-6-aminocyclohex-3-en-1-yl)-N-benzyl-2-chloro-5-(difluoromethyl)-7-iodo-5H-pyrrolo[3,2-d]pyrimidin-4-amine] |
| 30 to 300 | 30 to 300 | N[C@@H]1CCC[C@@H](O)[C@H]1c1sc2c(NCc3cccs3)cc(Cl)nc2c1Br [Compound 355, (1R,2S,3R)-3-amino-2-(3-bromo-5-chloro-7-((thiophen-2-ylmethyl)amino)thieno[3,2-b]pyridin-2-yl)cyclohexan-1-ol] |
| 30 to 300 | 30 to 300 | C#Cc1c([C@H]2CCCC[C@@H]2N)sc2c(NCc3ccco3)cc(Cl)nc12 [Compound 357, 2-((1S,2S)-2-aminocyclohexyl)-5-chloro-3-ethynyl-N-(furan-2-ylmethyl)thieno[3,2-b]pyridin-7-amine] |
| 30 to 300 | 30 to 300 | CC#CCNc1cc(Cl)nc2c(C)c([C@H]3CCCC[C@@H]3N)sc12 [Compound 363, 2-((1S,2S)-2-aminocyclohexyl)-N-(but-2-yn-1-yl)-5-chloro-3-methylthieno[3,2-b]pyridin-7-amine] |
| 30 to 300 | 30 to 300 | COC(=O)CNc1cc(Cl)nc2c(Br)c([C@H]3CC=CC[C@@H]3N)sc12 [Compound 366, methyl (2-((1S,6S)-6-aminocyclohex-3-en-1-yl)-3-bromo-5-chlorothieno[3,2-b]pyridin-7-yl)glycinate] |
| 30 to 300 | 30 to 300 | N[C@@H]1CCCC[C@H]1c1sc2c(NCc3ccccc3)cc(Cl)nc2c1Cl [Compound 368, 2-((1R,2R)-2-aminocyclohexyl)-N-benzyl-3,5-dichlorothieno[3,2-b]pyridin-7-amine] |
| 30 to 300 | 30 to 300 | N[C@@H]1CC=CC[C@H]1c1sc2c(NCc3ccncc3)cc(Cl)nc2c1Br [Compound 373, 2-((1R,6R)-6-aminocyclohex-3-en-1-yl)-3-bromo-5-chloro-N-(pyridin-4-ylmethyl)thieno[3,2-b]pyridin-7-amine] |
| 30 to 300 | 30 to 300 | N[C@@H]1CC=CC[C@H]1c1sc2c(NCc3ccncc3F)cc(Cl)nc2c1Cl [Compound 376, 2-((1R,6R)-6-aminocyclohex-3-en-1-yl)-3,5-dichloro-N-((3-fluoropyridin-4-yl)methyl)thieno[3,2-b]pyridin-7-amine] |
